Test results taken from PubChem BioAssay (NCI).
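The compound was tested at five concentrations on cells cultured in 96-well plates, with a 48-hour exposure period. GI50 = concentration required for 50% inhibition of growth. The concentration for full growth arrest is given as TGI.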

Columns and labels:
Assay in all cases: DTP human tumour cell line panel, 48 h
SN12C renal = test system: SN12C renal
EKVX NSCLC = test system: EKVX NSCLC
UACC-257 melanoma = test system: UACC-257 melanoma
M14 melanoma = test system: M14 melanoma
786-0 renal = test system: 786-0 renal
HCT-116 colon = test system: HCT-116 colon
SF-539 CNS = test system: SF-539 CNS
HOP-62 NSCLC = test system: HOP-62 NSCLC
PC-3 prostate = test system: PC-3 prostate
NCI/ADR-RES ovarian = test system: NCI/ADR-RES ovarian

SMILES	GI50 (SN12C renal)	TGI (SN12C renal)	GI50 (EKVX NSCLC)	TGI (EKVX NSCLC)	GI50 (UACC-257 melanoma)	TGI (UACC-257 melanoma)	GI50 (M14 melanoma)	TGI (M14 melanoma)	GI50 (786-0 renal)	TGI (786-0 renal)	GI50 (HCT-116 colon)	TGI (HCT-116 colon)	GI50 (SF-539 CNS)	TGI (SF-539 CNS)	GI50 (HOP-62 NSCLC)	TGI (HOP-62 NSCLC)	TGI (PC-3 prostate)	TGI (NCI/ADR-RES ovarian)	GI50 (PC-3 prostate)	GI50 (NCI/ADR-RES ovarian)
CCOC(=O)C(N)C[S][Sn]([CH3])([CH3])[Cl] (configuration not stated)	> 100 µM	> 100 µM	> 100 µM	> 100 µM	> 100 µM	> 100 µM	> 100 µM	> 100 µM	> 100 µM	> 100 µM	> 100 µM	> 100 µM	> 100 µM	> 100 µM	> 100 µM	> 100 µM	–	–	–	–
CCCCOC(=O)NC(=O)c1cn(CCCOC(=O)CCCCCCCCC(=O)OCCCn2cc(C(=O)NC(=O)OCCCC)c(=O)[nH]c2=O)c(=O)[nH]c1=O	–	> 100 µM	–	> 100 µM	–	> 100 µM	–	> 100 µM	–	> 100 µM	–	> 100 µM	–	> 100 µM	–	> 100 µM	–	–	–	–
NNC(=O)/C(=C/c1ccc(Cl)c(Cl)c1)NC(=O)c1ccccc1	–	> 100 µM	–	> 100 µM	–	> 100 µM	–	> 100 µM	–	> 100 µM	–	> 100 µM	–	–	–	> 100 µM	–	–	–	–
NC(=O)C(=Cc1ccc(C(O)P(=O)(O)O)cc1)C(N)=O (configuration not stated)	–	> 100 µM	–	> 100 µM	–	> 100 µM	–	> 100 µM	–	> 100 µM	–	> 100 µM	–	> 100 µM	–	> 100 µM	–	–	–	–
COc1ccccc1N1C(=O)/C(=C/c2ccc(N(CCC#N)CCC#N)cc2C)N=C1c1cc([N+](=O)[O-])ccc1Cl	–	> 100 µM	–	> 100 µM	–	> 100 µM	–	> 100 µM	–	> 100 µM	–	> 100 µM	–	> 100 µM	–	> 100 µM	–	–	–	–
O=[N+]([O-])c1cccc(C2N3CCCCC3[C@@H]3c4[nH]c5ccccc5c4CCN23)c1 (some centres not stated)	–	27.6 µM	–	69.9 µM	–	27 µM	–	28 µM	–	43.3 µM	–	–	–	29.7 µM	–	30.2 µM	–	–	–	–
CCCCc1c2c(nc3c1CCC/C3=C\c1ccccc1)C(=O)CCC2	–	47.4 µM	–	68.4 µM	–	44.8 µM	–	41.9 µM	–	60.9 µM	–	39.5 µM	–	33.2 µM	–	42 µM	–	–	–	–
COc1ccc([N+]2=NC(c3ccc([N+](=O)[O-])cc3)=NN(c3ccccc3)C2)cc1	–	> 100 µM	–	> 100 µM	–	> 100 µM	–	–	–	> 100 µM	–	> 100 µM	–	–	–	> 100 µM	–	–	–	–
CC(C)CS(=O)(=O)/C(=C(\c1ccc(Br)cc1)S(=O)(=O)CC(C)C)c1ccc(Br)cc1	–	> 100 µM	–	> 100 µM	–	> 100 µM	–	> 100 µM	–	> 100 µM	–	> 100 µM	–	> 100 µM	–	> 100 µM	–	–	–	–
CCC1(CC)C(=O)OC(=O)C1(CC)CC	–	–	–	> 100 µM	–	–	–	> 100 µM	–	> 100 µM	–	> 100 µM	–	> 100 µM	–	> 100 µM	> 100 µM	> 100 µM	–	–
c1ccc2c(c1)CCC/C2=N\OCC1CO1 (configuration not stated)	–	> 100 µM	–	> 100 µM	–	> 100 µM	–	> 100 µM	–	> 100 µM	–	> 100 µM	–	> 100 µM	–	> 100 µM	–	–	–	–
O=[N+]([O-])c1cccc(/C=N\NS(=O)(=O)c2ccc(Cl)cc2)c1O	–	> 100 µM	–	> 100 µM	–	> 100 µM	–	> 100 µM	–	> 100 µM	–	> 100 µM	–	> 100 µM	–	> 100 µM	–	–	–	–
CCOC(=O)NC(=O)c1cn(CC(=O)NCC(=O)NCC(=O)NCCCN2CCN(CCCNC(=O)CNC(=O)CNC(=O)Cn3cc(C(=O)NC(=O)OCC)c(=O)[nH]c3=O)CC2)c(=O)[nH]c1=O	–	> 100 µM	–	–	–	> 100 µM	–	> 100 µM	–	> 100 µM	–	> 100 µM	–	> 100 µM	–	> 100 µM	–	–	–	–
COC(=O)c1s/c(=N\C(=S)N(C)C)n(-c2ccccc2)c1C(=O)OC	–	> 100 µM	–	> 100 µM	–	> 100 µM	–	> 100 µM	–	> 100 µM	–	> 100 µM	–	> 100 µM	–	> 100 µM	–	–	–	–
O=C(Nc1cc(Cl)c(Cl)cc1Cl)C(=O)C1C=CCS1(=O)=O (configuration not stated)	–	> 100 µM	–	> 100 µM	–	> 100 µM	–	> 100 µM	–	> 100 µM	–	> 100 µM	–	> 100 µM	–	> 100 µM	–	–	–	–
O=C1c2ccccc2-c2cccc3ccc(Cc4ccc5ccccc5c4)c1c23	–	> 100 µM	–	> 100 µM	–	> 100 µM	–	> 100 µM	–	> 100 µM	–	> 100 µM	–	> 100 µM	–	> 100 µM	–	–	–	–
CC(=O)OCC1OC(N2C(=O)C(=O)c3cc(C)ccc32)C(OC(C)=O)C(OC(C)=O)C1OC(C)=O (configuration not stated)	–	> 100 µM	–	> 100 µM	–	> 100 µM	–	> 100 µM	–	> 100 µM	–	> 100 µM	–	> 100 µM	–	> 100 µM	–	–	–	–
COc1ccc(-c2onc(-c3ccc([N+](=O)[O-])cc3)c2C2=NCCN2)cc1	–	> 100 µM	–	> 100 µM	–	52.1 µM	–	> 100 µM	–	43 µM	–	> 100 µM	–	> 100 µM	–	> 100 µM	–	–	–	–
C=CC1(C(=O)O)CCC(C(C)(C)C)CC1 (configuration not stated)	–	> 100 µM	–	> 100 µM	–	> 100 µM	–	> 100 µM	–	> 100 µM	–	> 100 µM	–	> 100 µM	–	> 100 µM	–	–	–	–
COc1cc2c(cc1OCCCOc1cc3c(cc1OC)C(=O)N1C[C@H](F)C[C@H]1C=N3)N=C[C@@H]1C[C@@H](F)CN1C2=O	5.6 µM	19.2 µM	18.7 µM	35.5 µM	–	–	3.52 µM	16.4 µM	8.45 µM	20.6 µM	6.4 µM	42.8 µM	–	–	6.2 µM	19.3 µM	37.3 µM	26 µM	12.6 µM	11.9 µM
Cc1[nH]c2ccccc2c1C1Cc2ccccc2N1C(=O)/C=C\C(=O)O (configuration not stated)	–	> 100 µM	–	> 100 µM	–	37.8 µM	–	> 100 µM	–	> 100 µM	–	> 100 µM	–	75.2 µM	–	> 100 µM	–	–	–	–
COc1ccc(NC(=O)C(=O)C(C(=O)c2ccccc2)C2OC(=O)c3ccccc32)c([N+](=O)[O-])c1 (configuration not stated)	–	> 100 µM	–	> 100 µM	–	> 100 µM	–	> 100 µM	–	> 100 µM	–	> 100 µM	–	> 100 µM	–	> 100 µM	–	–	–	–
